Test results published in ChEMBL document CHEMBL1201862, “PubChem BioAssay data set” (2004).
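Cells were grown in 96-well plates and exposed to each compound for 48 hours at five concentrations; endpoints were interpolated linearly between bracketing concentrations, or set to the highest concentration if not reached. The concentration for 50% growth inhibition is given as GI50.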 Activity calls are given as the source filed them. Rule as the data show it: active = GI50 up to about 1.1 µM and inactive = higher.

Experiments:
Assay in all cases: growth of human tumour cells (NCI), 48 h
786-0 = system: 786-0
OVCAR-4 = system: OVCAR-4
RPMI-8226 = system: RPMI-8226
SNB-75 = system: SNB-75
HT-29 = system: HT-29
SR = system: SR
BT-549 = system: BT-549
COLO 205 = system: COLO 205
A498 = system: A498
OVCAR-8 = system: OVCAR-8
MCF7 = system: MCF7
MDA-MB-231 = system: MDA-MB-231
ACHN = system: ACHN
SF-539 = system: SF-539
NCI-H522 = system: NCI-H522
CCRF-CEM = system: CCRF-CEM
HOP-62 = system: HOP-62
UO-31 = system: UO-31
EKVX = system: EKVX
SK-MEL-5 = system: SK-MEL-5
HOP-92 = system: HOP-92
MDA-MB-435 = system: MDA-MB-435
SK-OV-3 = system: SK-OV-3
SF-295 = system: SF-295
IGROV-1 = system: IGROV-1
OVCAR-3 = system: OVCAR-3
SK-MEL-2 = system: SK-MEL-2
KM12 = system: KM12
A549 = system: A549
SN12C = system: SN12C
HL-60 = system: HL-60
NCI-H460 = system: NCI-H460
MDA-N = system: MDA-N
CAKI-1 = system: CAKI-1
MOLT-4 = system: MOLT-4
K562 = system: K562
LOX IMVI = system: LOX IMVI
NCI-H226 = system: NCI-H226
UACC-257 = system: UACC-257
HCT-116 = system: HCT-116
HCC 2998 = system: HCC 2998
SNB-19 = system: SNB-19
OVCAR-5 = system: OVCAR-5
DU-145 = system: DU-145
SW-620 = system: SW-620
NCI/ADR-RES = system: NCI/ADR-RES
U-251 = system: U-251
RXF 393 = system: RXF 393
SK-MEL-28 = system: SK-MEL-28
PC-3 = system: PC-3
NCI-H23 = system: NCI-H23
UACC-62 = system: UACC-62
M14 = system: M14
HCT-15 = system: HCT-15
Malme-3M = system: Malme-3M

Structure (SMILES): O/N=C1\SC(=N\O)/C(=N/O)S\C1=N/O
- GI50 (786-0): > 100 µM (inactive)
- GI50 (OVCAR-4): > 100 µM (inactive)
- GI50 (RPMI-8226): 83.2 µM (inactive)
- GI50 (SNB-75): > 100 µM (inactive)
- GI50 (HT-29): > 100 µM (inactive)
- GI50 (SR): 38.2 µM (inactive)
- GI50 (BT-549): > 100 µM (inactive)
- GI50 (COLO 205): > 100 µM (inactive)
- GI50 (A498): > 100 µM (inactive)
- GI50 (OVCAR-8): > 100 µM (inactive)
- GI50 (MCF7): > 100 µM (inactive)
- GI50 (MDA-MB-231): > 100 µM (inactive)
- GI50 (ACHN): > 100 µM (inactive)
- GI50 (SF-539): > 100 µM (inactive)
- GI50 (NCI-H522): 16.2 µM (inactive)
- GI50 (CCRF-CEM): > 100 µM (inactive)
- GI50 (HOP-62): > 100 µM (inactive)
- GI50 (UO-31): 87.5 µM (inactive)
- GI50 (EKVX): > 100 µM (inactive)
- GI50 (SK-MEL-5): 38.7 µM (inactive)
- GI50 (HOP-92): > 100 µM (inactive)
- GI50 (MDA-MB-435): > 100 µM (inactive)
- GI50 (SK-OV-3): > 100 µM (inactive)
- GI50 (SF-295): > 100 µM (inactive)
- GI50 (IGROV-1): > 100 µM (inactive)
- GI50 (OVCAR-3): > 100 µM (inactive)
- GI50 (SK-MEL-2): > 100 µM (inactive)
- GI50 (KM12): 79.4 µM (inactive)
- GI50 (A549): > 100 µM (inactive)
- GI50 (SN12C): > 100 µM (inactive)
- GI50 (HL-60): 21 µM (inactive)
- GI50 (NCI-H460): > 100 µM (inactive)
- GI50 (MDA-N): 73.8 µM (inactive)
- GI50 (CAKI-1): > 100 µM (inactive)
- GI50 (MOLT-4): > 100 µM (inactive)
- GI50 (K562): 51.2 µM (inactive)
- GI50 (LOX IMVI): > 100 µM (inactive)
- GI50 (NCI-H226): > 100 µM (inactive)
- GI50 (UACC-257): > 100 µM (inactive)
- GI50 (HCT-116): 68.4 µM (inactive)
- GI50 (HCC 2998): > 100 µM (inactive)
- GI50 (SNB-19): > 100 µM (inactive)
- GI50 (OVCAR-5): > 100 µM (inactive)
- GI50 (DU-145): > 100 µM (inactive)
- GI50 (SW-620): > 100 µM (inactive)
- GI50 (NCI/ADR-RES): > 100 µM (inactive)
- GI50 (U-251): > 100 µM (inactive)
- GI50 (RXF 393): > 100 µM (inactive)
- GI50 (SK-MEL-28): > 100 µM (inactive)
- GI50 (PC-3): > 100 µM (inactive)
- GI50 (NCI-H23): 76.6 µM (inactive)
- GI50 (UACC-62): 94.8 µM (inactive)
- GI50 (M14): > 100 µM (inactive)
- GI50 (HCT-15): > 100 µM
- GI50 (Malme-3M): > 100 µM (inactive)
